Results taken from patent US20240077500A1, “METHOD FOR THE DETECTION AND TREATMENT OF PROTEINOPATHIES” (Women & Infants Hospital of Rhode Island, priority 2021, published 2024).

Columns and labels:
[1] = test system: hTAU mice; experiment: Nesting activity assay in e-PES injected hTAU mice; format: in vivo, mouse
Experimental: FIG. 21A: provides photographs of representative nests constructed by the mice; FIG. 21B and FIG. 21D provide bar graphs showing nestlet score for 4-month old (FIG. 21B) and 6-month old (FIG. 21D) mice; FIG. 21C and FIG. 21E provide bar graphs showing untorn nestlet weight for 4-month old (FIG. 21C) and 6-month old (FIG. 21E) mice.
Nesting activity was assessed using a modified scoring criteria to rate the quality of nest construction and the amount of torn nestlet material. Following the nocturnal period, untorn nesting material was weighed, and nests were photographed for scoring on a 0-7 ordinal scale modified from published criteria. Nestlet scores and weights are shown as mean+SEM; *p<0.05 versus controls. Preeclampsia serum was used to observe significant effects in hTAU mice without waiting for 9-12 months of age.
(§1) 100 μL e-PES (early-onset preeclampsia serum) was injected in 10-12 weeks old non-pregnant female hTAU mice. The i.p. injection was performed once a week for 4 weeks. Trehalose treatment (2 g/kg/week) or saline (100 μL/week) was initiated after completion of 4 weeks of e-PES injection cycle. At the end of the trehalose treatment, a group of mice (n=5 for each group) was sacrificed after 2 weeks of resting biological activity (FIG. 18).
(§2) Another two groups were kept to assess their behavioral and brain pathological outcomes (i.e., nesting behavior and/or sensory motor coordination).

[2] = test system: SHSY neuronal cells; experiment: AD serum-induced protein aggregation in SHSY neuronal cells, ProteoStat staining; format: cell-based; settings: 50 mM trehalose, 10% AD patient serum, 24 hours
Experimental: (§3) Primary human trophoblasts and SHSY cells were cultured and washed with serum-free media at 70% confluency. The cells were then cultured with 10% serum samples from AD patients for 72 hours (trophoblasts) and 24 hours (neuronal cells), respectively, in the absence or presence of 50 mM trehalose. Cells were stained with ProteoStat dye and evaluated for accumulation of protein aggregates.

[3] = test system: hTAU transgenic mouse model; experiment: Preeclampsia serum-induced onset of AD features in the hTAU transgenic mouse model (Example 7); format: in vivo; settings: weekly trehalose (2 mg/kg) from 2 months (60 day old mice) for one month; preeclampsia serum injected at 1 month
Experimental: The efficacy with which trehalose inhibits the onset of Alzheimer's disease (AD) features was assessed using the hTAU transgenic mouse model at ages of 3, 6, 9, and 12 months. The onset of AD features were preempted by the administration of serum obtained from pregnant women with normal pregnancy or preeclampsia.

[4] = test system: hTAU mice; experiment: Ledge assay (sensorimotor coordination) in e-PES injected hTAU mice; format: in vivo, mouse; settings: for falling off of the ledge / mobility: e-PES+trehalose mice
Excerpt: FIGS. 22A-22C provide the results of sensory-motor coordination studies utilizing a ledge assay. hTAU mice were compared to hTAU mice injected with e-PES at 10-12 weeks age (n=5) with or without trehalose administration. […] FIG. 22C provides a bar graph comparing time spent on the ledge (seconds) for each subset of mice (i.e., hTAU control, PES 49, and PES 49+trehalose).
Sensorimotor coordination deficits were detected by the ledge assay. In the ledge assay, mice were placed on the elevated cage's ledge at a height of 35 cm and width of 0.8 cm and their movement was monitored. Each mouse was tested three times (approximately 20 seconds) and scored from 0 to 3 depending on the severity of deficits.
as §1, §2

[5] = test system: human trophoblasts; experiment: AD serum-induced protein aggregation in primary human trophoblasts, ProteoStat staining; format: cell-based; settings: 50 mM trehalose, 10% AD patient serum, 72 hours
Experimental: as §3

[6] = for humans, by the FDA, based on safety studies in mice, rats and rabbits, including during pregnancy; cited from earlier work
[7] = test system: hTAU mice; experiment: Brain pathology (AT180 hyperphosphorylated Tau staining of mPFC) in e-PES injected hTAU mice (Example 8); format: in vivo, mouse; settings: trehalose 2 g/kg/week i.p. for 4 weeks after 4 weeks of e-PES injection
Experimental: 10-12 week old non-pregnant female hTAU mice were injected with e-PE serum (100 μL/week for 4 weeks) followed by treatment (i.p injection) with either saline (100 μL /week) or Trehalose (2 g/kg/week) for 4 weeks, followed by 2 weeks of resting period prior to biological assessments. Medial prefrontal cortex (mPFC) was stained for hyperphosphorylated Tau (using antibody AT180 which detects Tau hyperphosphorylation at T231 & S235). FIG: 19A: Confocal images stained with AT180 are shown that correspond to the mPFC of control (upper), e-PES (middle), and e-PES+Trehalose (bottom), with quantification data in mPFC being present at right panels; inset images are the high magnification image of the selected area; FIG. 19B: provides a bar graph showing the number of AT180 positive cells/0.1 mm^2 in hTAU control, PES 49, and PES 49+trehalose treated mice.
10-12 weeks old non-pregnant female hTAU mice were injected with e-PE serum (100 μL/week for 4 weeks) followed by treatment (i.p injection) with either saline (100 μL/week) or Trehalose (2 g/kg/week) for 4 weeks, followed by 8-10 weeks of resting period prior to biological assessment. Medial prefrontal cortex (mPFC) was stained for hyperphosphorylated Tau (using antibody AT180 which detects Tau hyperphosphorylation at T231 & S235). […]
Brain pathologies were evaluated in a group of mice at 4 and 6 months of age.

[8] = e-PES alone compared to control and e-PES+trehalose treated hTAU mice (n=5), 6 months

Question: Which results are given for OC[C@H]1O[C@H](O[C@H]2O[C@H](CO)[C@@H](O)[C@H](O)[C@H]2O)[C@H](O)[C@@H](O)[C@@H]1O [trehalose, (2R,2′R,3 S,3′S,4S,4′S,5R,5′R,6R,6′R)-6,6′-oxybis(2-(hydroxymethyl)tetrahydro-2H-pyran-3,4,5-triol)]?
Answer: nestlet score at 4 months of age ([1]; between control and indicated treatment groups, 4 month old hTAU mice): no significant changes; nestlet score at 6 months of age [1, 8]: significantly lower nestlet scores; untorn nestlet weight at 6 months of age [1, 8]: significantly greater untorn nestlet weights; cognitive decline ([1]; limited (4 weeks) treatment with trehalose, 2 g/kg/week): improved cognitive decline; AD serum-caused protein aggregation [2]: could be inhibited; onset of AD features [3]: inhibited the onset of AD features; falling off of the ledge / mobility [4]: immobile, not falling off; falling off of the ledge / mobility ([4]; listed as Trehalose): did not fall off of the ledge frequently; motor activity ([4]; trehalose 2 g/kg/week for 4 weeks after e-PES injection): could not restore motor activity completely; sensorimotor coordination deficits ([4]; trehalose 2 g/kg/week for 4 weeks after e-PES injection at 10-12 weeks of age): partially prevented; time spent on the ledge ([4]; trehalose treated mice (n=5) compared to only e-PES treated mice): significantly more time on the ledge; AD serum-caused protein aggregation [5]: could be inhibited; safety status [6]: generally regarded as safe; hTAU burden [7]: reduced hTAU burdern
